Molecular target: AMPK
Assay: AMPK activation, enzyme-linked immunosorbent assay
Assay type: biochemical

Compound | EC50 (compounds of Table 1 (Table 6)) [nM] | EC50 (compounds of Table 3 (Table 8)) [nM]
O=C(NC1CCN(Cc2ccccn2)CC1)c1sc2cc(OC3CCN(c4ccc(C(F)(F)F)cc4)CC3)ccc2c1Cl [1-153, 3-chloro-N-(1-(pyridin-2-ylmethyl)piperidin-4-yl)-6-(1-(4-(trifluoromethyl)phenyl)piperidin-4-yloxy)benzo[b]thiophene-2-carboxamide] | 100 to 500 | 
O=C(NC1CCN(Cc2ccc(C(F)(F)F)cc2)CC1)c1ccc2c(c1)CN(Cc1ccc(F)cc1)CC2 [3-36, 2-(4-fluorobenzyl)-N-(1-(4-(trifluoromethyl)benzyl)piperidin-4-yl)-1,2,3,4-tetrahydroisoquinoline-7-carboxamide] |  | 100 to 1000
CN(C(=O)c1cc2cc(OC3CCN(c4ccc(C(F)(F)F)cc4)CC3)ccc2o1)C1CCN(C(=O)c2ccncc2)CC1 [1-118, N-(1-isonicotinoylpiperidin-4-yl)-N-methyl-5-(1-(4-(trifluoromethyl)phenyl)piperidin-4-yloxy)benzofuran-2-carboxamide] | 100 to 500 | 
